# In ChEMBL document CHEMBL1201861, “Genomics of Drug Sensitity in Cancer screening data, Wellcome Trust Sanger Institute”:
# Key:
# Assay in all cases: cells
# COR-L105 = format: functional, cell-based, Homo sapiens; settings: Homo sapiens, COR-L105;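 also: cell growth inhibition determined with a viability assay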
# Description: SANGER: Inhibition of human COR-L105 cell growth in a cell viability assay.
# Capan-2 = format: functional, cell-based, Homo sapiens; settings: Homo sapiens, Capan-2;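 also: Capan-2 cell growth inhibition, read out with a viability assay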
# Description: SANGER: Inhibition of human Capan-2 cell growth in a cell viability assay.
# D-542MG = format: functional, cell-based, Homo sapiens; settings: Homo sapiens, D-542MG
# Description: SANGER: Inhibition of human D-542MG cell growth in a cell viability assay.
# DJM-1 = format: functional, cell-based, Homo sapiens; settings: Homo sapiens, DJM-1;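 also: growth inhibition of human DJM-1 cells, read out by a cell viability assay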
# Description: SANGER: Inhibition of human DJM-1 cell growth in a cell viability assay.
# DMS-273 = format: functional, cell-based, Homo sapiens; settings: Homo sapiens, DMS-273
# Description: SANGER: Inhibition of human DMS-273 cell growth in a cell viability assay.
# EC-GI-10 = format: functional, cell-based, Homo sapiens; settings: Homo sapiens, EC-GI-10
# Description: SANGER: Inhibition of human EC-GI-10 cell growth in a cell viability assay.
# ES6 = format: functional, cell-based, Homo sapiens; settings: Homo sapiens, ES6;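 also: growth inhibition of human ES6 cells, read out with a cell viability assay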
# Description: SANGER: Inhibition of human ES6 cell growth in a cell viability assay.
# HCC1937 = format: functional, cell-based, Homo sapiens; settings: Homo sapiens, HCC1937;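 also: growth inhibition measured with a cell viability read-out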
# Description: SANGER: Inhibition of human HCC1937 cell growth in a cell viability assay.
# HCC70 = format: functional, cell-based, Homo sapiens; settings: Homo sapiens, HCC70;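 also: cell viability assay measuring how strongly the compound suppresses proliferation of HCC70 cells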
# Description: SANGER: Inhibition of human HCC70 cell growth in a cell viability assay.
# HEL = format: functional, cell-based, Homo sapiens; settings: Homo sapiens, HEL;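 also: growth inhibition of HEL cells, read out with a cell viability assay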
# Description: SANGER: Inhibition of human HEL cell growth in a cell viability assay.
# HMV-2 cell line = format: functional, cell-based, Homo sapiens; settings: Homo sapiens, HMV-2;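 also: growth inhibition of HMV-II cells, read out with a cell viability assay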
# Description: SANGER: Inhibition of human HMV-II cell growth in a cell viability assay.
# HN = format: functional, cell-based, Homo sapiens; settings: Homo sapiens, HN
# Description: SANGER: Inhibition of human HN cell growth in a cell viability assay.
# HOS = format: functional, cell-based, Homo sapiens; settings: Homo sapiens, HOS;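 also: growth inhibition of human HOS cells, read out with a cell viability assay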
# Description: SANGER: Inhibition of human HOS cell growth in a cell viability assay.
# Hs-578T = format: functional, cell-based, Homo sapiens; settings: Homo sapiens, Hs-578T
# Description: SANGER: Inhibition of human Hs-578-T cell growth in a cell viability assay.
# KP-N-YS = format: functional, cell-based; settings: Homo sapiens;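 also: cell viability assay measuring inhibition of cell line growth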
# Description: SANGER: Inhibition of human KP-N-YS cell growth in a cell viability assay.
# KYSE-180 = format: functional, cell-based, Homo sapiens; settings: Homo sapiens, KYSE-180;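 also: growth inhibition of KYSE-180 cells, read out with a cell viability assay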
# Description: SANGER: Inhibition of human KYSE-180 cell growth in a cell viability assay.
# LAMA-84 = format: functional, cell-based; settings: Homo sapiens;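 also: growth inhibition of LAMA-84 cells, read out with a cell viability assay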
# Description: SANGER: Inhibition of human LAMA-84 cell growth in a cell viability assay.
# LS-411N = format: functional, cell-based, Homo sapiens; settings: Homo sapiens, LS-411N
# MDA-MB-157 = format: functional, cell-based, Homo sapiens; settings: Homo sapiens, MDA-MB-157
# Description: SANGER: Inhibition of human MDA-MB-157 cell growth in a cell viability assay.
# MEG-01 = format: functional, cell-based; settings: Homo sapiens;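 also: growth inhibition of MEG-01 cells, read out by a cell viability assay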
# Description: SANGER: Inhibition of human MEG-01 cell growth in a cell viability assay.
# MKN-28 = format: functional, cell-based, Homo sapiens; settings: Homo sapiens, MKN-28;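 also: cell viability assay read-out, IC50 reflects suppression of growth of human MKN-28 cells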
# Description: SANGER: Inhibition of human MKN28 cell growth in a cell viability assay.
# MKN-7 = format: functional, cell-based, Homo sapiens; settings: Homo sapiens, MKN-7;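 also: growth inhibition of MKN-7 cells, read out with a cell viability assay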
# Description: SANGER: Inhibition of human MKN7 cell growth in a cell viability assay.
# MSTO-211H = format: functional, cell-based, Homo sapiens; settings: Homo sapiens, MSTO-211H
# Description: SANGER: Inhibition of human MSTO-211H cell growth in a cell viability assay.
# MZ1-PC = format: functional, cell-based, Homo sapiens; settings: Homo sapiens, MZ1-PC;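 also: cell viability assay measuring growth inhibition of human MZ1-PC cells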
# Description: SANGER: Inhibition of human MZ1-PC cell growth in a cell viability assay.
# MeWo = format: functional, cell-based, Homo sapiens; settings: Homo sapiens, MeWo;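 also: growth inhibition of MeWo cells, determined by a cell viability readout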
# Description: SANGER: Inhibition of human Mewo cell growth in a cell viability assay.
# NCI-H1299 = format: functional, cell-based, Homo sapiens; settings: Homo sapiens, NCI-H1299;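 also: growth inhibition of human NCI-H1299 cells, read out by a cell viability assay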
# Description: SANGER: Inhibition of human NCI-H1299 cell growth in a cell viability assay.
# NCI-H1355 = format: functional, cell-based, Homo sapiens; settings: Homo sapiens, NCI-H1355;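 also: growth inhibition of human NCI-H1355 cells, read out by a cell viability assay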
# Description: SANGER: Inhibition of human NCI-H1355 cell growth in a cell viability assay.
# NCI-H1651 = format: functional, cell-based, Homo sapiens; settings: Homo sapiens, NCI-H1651;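 also: Read-out is a cell viability assay, with IC50 expressing inhibition of NCI-H1651 cell growth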
# Description: SANGER: Inhibition of human NCI-H1651 cell growth in a cell viability assay.
# NCI-H1793 = format: functional, cell-based, Homo sapiens; settings: Homo sapiens, NCI-H1793;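 also: cell growth inhibition, read out by a cell viability assay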
# Description: SANGER: Inhibition of human NCI-H1793 cell growth in a cell viability assay.
# NCI-H2122 = format: functional, cell-based, Homo sapiens; settings: Homo sapiens, NCI-H2122;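 also: growth inhibition of the cells, read out with a cell viability assay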
# Description: SANGER: Inhibition of human NCI-H2122 cell growth in a cell viability assay.
# OMC-1 = format: functional, cell-based, Homo sapiens; settings: Homo sapiens, OMC-1;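 also: growth inhibition of the OMC-1 cell line, measured by a cell viability assay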
# Description: SANGER: Inhibition of human OMC-1 cell growth in a cell viability assay.
# P12-Ichikawa = format: functional, cell-based; settings: Homo sapiens
# Panc1005 = format: functional, cell-based, Homo sapiens; settings: Homo sapiens, Panc1005;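 also: growth inhibition of human PANC-10-05 cells, measured by a cell viability assay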
# Description: SANGER: Inhibition of human PANC-10-05 cell growth in a cell viability assay.
# RCC10RGB = format: functional, cell-based, Homo sapiens; settings: Homo sapiens, RCC10RGB;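 also: growth inhibition of human RCC10RGB cells, read out by a cell viability assay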
# Description: SANGER: Inhibition of human RCC10RGB cell growth in a cell viability assay.
# SF-268 = format: functional, cell-based, Homo sapiens; settings: Homo sapiens, SF-268;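 also: growth inhibition of SF-268 cells determined with a cell viability assay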
# Description: SANGER: Inhibition of human SF268 cell growth in a cell viability assay.
# SK-LMS-1 = format: functional, cell-based, Homo sapiens; settings: Homo sapiens, SK-LMS-1;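 also: growth inhibition of human SK-LMS-1 cells, read out with a cell viability assay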
# Description: SANGER: Inhibition of human SK-LMS-1 cell growth in a cell viability assay.
# SK-MEL-30 = format: functional, cell-based; settings: Homo sapiens;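 also: growth inhibition of SK-MEL-30 cells, determined with a cell viability assay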
# Description: SANGER: Inhibition of human SK-MEL-30 cell growth in a cell viability assay.
# SK-MES-1 = format: functional, cell-based, Homo sapiens; settings: Homo sapiens, SK-MES-1;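 also: growth inhibition of human SK-MES-1 cells, read out with a cell viability assay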
# Description: SANGER: Inhibition of human SK-MES-1 cell growth in a cell viability assay.
# SNU-449 = format: functional, cell-based, Homo sapiens; settings: Homo sapiens, SNU-449
# Description: SANGER: Inhibition of human SNU-449 cell growth in a cell viability assay.
# SW1088 = format: functional, cell-based, Homo sapiens; settings: Homo sapiens, SW1088;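 also: growth inhibition of human SW1088 cells, read out by a cell viability assay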
# Description: SANGER: Inhibition of human SW1088 cell growth in a cell viability assay.
# 647-V = format: functional, cell-based, Homo sapiens; settings: Homo sapiens, 647-V;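 also: growth inhibition of 647-V cells, read out with a cell viability assay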
# Description: SANGER: Inhibition of human 647-V cell growth in a cell viability assay.
# A2058 = format: functional, cell-based; settings: Homo sapiens;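 also: reduction of A2058 cell growth, read out with a viability assay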
# Description: SANGER: Inhibition of human A2058 cell growth in a cell viability assay.
# A-427 = format: functional, cell-based, Homo sapiens; settings: Homo sapiens, A-427;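 also: growth inhibition of human A-427 cells, read out by a cell viability assay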
# Description: SANGER: Inhibition of human A427 cell growth in a cell viability assay.
# BB65-RCC = format: functional, cell-based, Homo sapiens; settings: Homo sapiens, BB65-RCC;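 also: growth inhibition of the cell line, measured with a cell viability assay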
# Description: SANGER: Inhibition of human BB65-RCC cell growth in a cell viability assay.
# BFTC-905 = format: functional, cell-based, Homo sapiens; settings: Homo sapiens, BFTC-905
# Description: SANGER: Inhibition of human BFTC-905 cell growth in a cell viability assay.
# UACC-257 = format: functional, cell-based, Homo sapiens; settings: Homo sapiens, UACC-257
# Description: SANGER: Inhibition of human UACC-257 cell growth in a cell viability assay.
# VM-CUB-1 = format: functional, cell-based; settings: Homo sapiens;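 also: cell viability assay measuring growth inhibition of the human VM-CUB-1 cell line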
# Description: SANGER: Inhibition of human VM-CUB-1 cell growth in a cell viability assay.
# YAPC = format: functional, cell-based, Homo sapiens; settings: Homo sapiens, YAPC;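 also: growth inhibition of YAPC cells, measured with a cell viability assay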
# Description: SANGER: Inhibition of human YAPC cell growth in a cell viability assay.
# CCRF-CEM = format: functional, cell-based; settings: Homo sapiens;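 also: inhibition of CCRF-CEM cell growth, measured by a cell viability assay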
# Description: SANGER: Inhibition of human CCRF-CEM cell growth in a cell viability assay.
# CHP-212 = format: functional, cell-based, Homo sapiens; settings: Homo sapiens, CHP-212
# Description: SANGER: Inhibition of human CHP-212 cell growth in a cell viability assay.
smiles,measurement,setting,value
COc1cc([C@@H]2c3cc4c(cc3[C@@H](O[C@@H]3O[C@@H]5CO[C@@H](C)O[C@H]5[C@H](O)[C@H]3O)[C@H]3COC(=O)[C@H]23)OCO4)cc(OC)c1O [ETOPOSIDE],IC50,COR-L105,9.57 µM
same,IC50,Capan-2,> 16 µM
same,IC50,D-542MG,> 16 µM
same,IC50,DJM-1,203 nM
same,IC50,DMS-273,573 nM
same,IC50,EC-GI-10,> 16 µM
same,IC50,ES6,> 16 µM
same,IC50,HCC1937,15.8 µM
same,IC50,HCC70,> 16 µM
same,IC50,HEL,3.9 µM
same,IC50,HMV-2 cell line,569 nM
same,IC50,HN,> 16 µM
same,IC50,HOS,474 nM
same,IC50,Hs-578T,> 16 µM
same,IC50,KP-N-YS,4.24 µM
same,IC50,KYSE-180,2070 nM
same,IC50,LAMA-84,9.21 µM
same,IC50,LS-411N,925 nM
same,IC50,MDA-MB-157,12.6 µM
same,IC50,MEG-01,4.75 µM
same,IC50,MKN-28,2550 nM
same,IC50,MKN-7,> 16 µM
same,IC50,MSTO-211H,> 16 µM
same,IC50,MZ1-PC,811 nM
same,IC50,MeWo,6.79 µM
same,IC50,NCI-H1299,2070 nM
same,IC50,NCI-H1355,390 nM
same,IC50,NCI-H1651,> 16 µM
same,IC50,NCI-H1793,5.31 µM
same,IC50,NCI-H2122,5.39 µM
same,IC50,OMC-1,> 16 µM
same,IC50,P12-Ichikawa,317 nM
same,IC50,Panc1005,2890 nM
same,IC50,RCC10RGB,> 16 µM
same,IC50,SF-268,2550 nM
same,IC50,SK-LMS-1,553 nM
same,IC50,SK-MEL-30,8.24 µM
same,IC50,SK-MES-1,808 nM
same,IC50,SNU-449,> 16 µM
same,IC50,SW1088,> 16 µM
same,IC50,647-V,487 nM
same,IC50,A2058,425 nM
same,IC50,A-427,103 nM
same,IC50,BB65-RCC,979 nM
same,IC50,BFTC-905,426 nM
same,IC50,UACC-257,> 16 µM
same,IC50,VM-CUB-1,2580 nM
same,IC50,YAPC,> 16 µM
same,IC50,CCRF-CEM,170 nM
same,IC50,CHP-212,1410 nM
Cc1cnc(-c2cnc(NCCNc3ccc(C#N)cn3)nc2-c2ccc(Cl)cc2Cl)[nH]1 [LADUVIGLUSIB],IC50,COR-L105,> 2.56 µM
same,IC50,Capan-2,> 2.56 µM
same,IC50,D-542MG,> 2.56 µM
same,IC50,DJM-1,> 2560 nM
same,IC50,DMS-273,> 2560 nM
same,IC50,EC-GI-10,> 2.56 µM
same,IC50,ES6,> 2.56 µM
same,IC50,HCC1937,> 2.56 µM
same,IC50,HCC70,> 2.56 µM
same,IC50,HEL,> 2.56 µM
same,IC50,HMV-2 cell line,> 2560 nM
same,IC50,HN,> 2.56 µM
same,IC50,HOS,> 2560 nM
same,IC50,Hs-578T,> 2.56 µM
same,IC50,KP-N-YS,> 2.56 µM
same,IC50,KYSE-180,1730 nM
same,IC50,LAMA-84,> 2.56 µM
same,IC50,LS-411N,> 2560 nM
same,IC50,MDA-MB-157,> 2.56 µM
same,IC50,MEG-01,> 2.56 µM
same,IC50,MKN-28,> 2560 nM
same,IC50,MKN-7,> 2.56 µM
same,IC50,MSTO-211H,> 2.56 µM
same,IC50,MZ1-PC,> 2560 nM
same,IC50,MeWo,> 2.56 µM
same,IC50,NCI-H1299,> 2560 nM
same,IC50,NCI-H1355,> 2560 nM
same,IC50,NCI-H1651,> 2.56 µM
same,IC50,NCI-H1793,> 2.56 µM
same,IC50,NCI-H2122,2.28 µM
same,IC50,OMC-1,> 2.56 µM
same,IC50,P12-Ichikawa,> 2560 nM
same,IC50,Panc1005,> 2560 nM
same,IC50,RCC10RGB,> 2.56 µM
same,IC50,SF-268,> 2560 nM
same,IC50,SK-LMS-1,> 2560 nM
same,IC50,SK-MEL-30,> 2.56 µM
same,IC50,SK-MES-1,> 2560 nM
same,IC50,SNU-449,> 2.56 µM
same,IC50,SW1088,> 2.56 µM
same,IC50,647-V,> 2560 nM
same,IC50,A2058,> 2560 nM
same,IC50,A-427,> 2560 nM
same,IC50,BB65-RCC,> 2560 nM
same,IC50,BFTC-905,> 2560 nM
same,IC50,UACC-257,> 2.56 µM
same,IC50,VM-CUB-1,> 2560 nM
same,IC50,YAPC,> 2.56 µM
same,IC50,CCRF-CEM,> 2560 nM
same,IC50,CHP-212,> 2560 nM
